Measurements: patent US7691572B2, “Method and kit for detecting resistance to antiviral drugs” (priority 1998, dated 2010)

Target: T1, recombinant p66/p51 HIV-1 reverse transcriptase (Human immunodeficiency virus type 1 group M subtype B, UniProt P04585)
T1 construct: recombinant p66/p51 HIV-1 reverse transcriptase; purchased Biotechnology General, Rehovot, Israel
Test: 3HdCTP incorporation assay with recombinant RT
Type: biochemical
Details: read-out: concentration resulting in 50% inhibition of incorporation of 3HdCTP; (rI)n-dC12-18 template primer
Protocol: Wild type HIV-1SUM9, and multiple dideoxy nucleoside-resistant HIV-1SUM8 (Q151M mutation), HIV-1SUM12 (F77L/F116Y/Q151M) and HIV-1SUM13 (A62V/V751/F77L/F116Y/Q151M) MICs were provided by Dr. Mitsuya as described by Shirasaka et al., Proc. Natl. Acad. Sci. USA 92: 2398-2402 (1995). The synthesis and preparation of 3TC-TP were carried out as described by Schinazi et al., Antimicrob. Agents Chemother. 36: 2423-2431 (1992). The crude 3TC-5-TP was purified by FPLC using a HiLoad 26/10Q Sepharose Fast Flow™ Pharmacia chromatography column (Pharmacia, Piscataway, N.J.) and gradient of TEAE buffer (pH 7.0). The compound was characterized by UV spectroscopy, proton and phosphorous NMR, mass spectroscopy and HPLC.

Question: With `Nc1ccn([C@@H]2CS[C@H](COP(=O)(O)OP(=O)(O)OP(=O)(O)O)O2)c(=O)n1` [3TC-TP, 3TC-5′-triphosphate] as the molecule, how does the IC50 read?
Answer: Its IC50 is 1300 nM.
